# Experiments:
# AtSPP-GFP = target: T1, AtSPP-GFP (Arabidopsis thaliana, UniProt O81062); assay: gel immunoblot cleavage assay of myc-Prl-PP-FLAG with DDM-solubilised membranes; type: biochemical; settings: 1 μM myc-Prl-PP-FLAG substrate, 0.25% DDM, 37°C, 15 h; 50 μM inhibitor
# T1 construct: gene SPP; full length with C-terminal yEGFP-octa-His tag kept, expressed in Saccharomyces cerevisiae BY2777; DDM-solubilised yeast membranes; estimated 65 kDa
# T1 sequence (O81062 1-344): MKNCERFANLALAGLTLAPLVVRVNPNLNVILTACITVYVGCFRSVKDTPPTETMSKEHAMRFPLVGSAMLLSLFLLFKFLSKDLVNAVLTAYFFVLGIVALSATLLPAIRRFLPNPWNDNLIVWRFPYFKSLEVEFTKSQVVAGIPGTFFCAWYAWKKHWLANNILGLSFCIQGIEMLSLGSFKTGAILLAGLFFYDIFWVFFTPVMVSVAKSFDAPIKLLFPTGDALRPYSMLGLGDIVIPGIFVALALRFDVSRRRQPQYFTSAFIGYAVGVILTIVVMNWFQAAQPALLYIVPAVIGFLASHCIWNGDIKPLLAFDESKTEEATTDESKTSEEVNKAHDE
# native human SPP (HsSPP) = target: T2, native human SPP (HsSPP) (Homo sapiens, UniProt Q8TCT9); assay: as above; type: biochemical; settings: 1 μM myc-Prl-PP-FLAG substrate, 0.25% DDM, 37°C; 10 μM inhibitor
# T2 construct: gene HM13; endogenous, untagged, in DDM-solubilised membrane fraction of HEK293T cells
# T2 sequence (Q8TCT9 1-377): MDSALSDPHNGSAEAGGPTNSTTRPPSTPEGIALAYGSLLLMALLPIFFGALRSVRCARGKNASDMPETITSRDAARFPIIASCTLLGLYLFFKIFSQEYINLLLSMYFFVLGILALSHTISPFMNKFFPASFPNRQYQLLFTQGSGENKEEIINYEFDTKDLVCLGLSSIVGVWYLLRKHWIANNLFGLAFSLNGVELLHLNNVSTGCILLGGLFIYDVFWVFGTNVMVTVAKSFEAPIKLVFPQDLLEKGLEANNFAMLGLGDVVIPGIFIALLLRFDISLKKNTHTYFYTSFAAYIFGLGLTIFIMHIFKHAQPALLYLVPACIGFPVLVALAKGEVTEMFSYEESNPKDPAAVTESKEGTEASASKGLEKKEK
compound,measurement,setting,value
"CC(C)C[C@H](NC(=O)OCc1ccccc1)C(=O)N[C@@H](CC(C)C)C(=O)NCC(=O)CNC(=O)[C@H](CC(C)C)NC(=O)[C@H](CC(C)C)NC(=O)OCc1ccccc1 [(Z-LL)2-ketone, 1,3-di-(N-carboxybenzoyl-L-leucyl-L-leucyl) amino acetone]",inhibition at 50 μM,AtSPP-GFP,"rate of proteolytic activity of AtSPP-GFP was weak, the activity was inhibited by the (Z-LL)2-ketone"
same,inhibition at 10 μM,native human SPP (HsSPP),the SPP was inhibited by the (Z-LL)2-ketone
